The record followed here is patent publication US8394758B2, “Tumor-targeting peptides and uses thereof” (Academia Sinica, priority 2008, dated 2013).

The subject of one series is tumor xenografts. Description: Histopathology of tumor tissues by H&E staining. To be noted: doxorubicin 1 mg/kg twice a week for four weeks. In kind it is in vivo, SCID mice.
Series [1] relates to Non-small cell lung cancer xenografts. Description: Doxorubicin levels in tumor tissue and tumor cell nuclei (spectrofluorometry). In kind it is in vivo, SCID mice. To be noted: 2 mg/kg doxorubicin. The method, then:
Non-small cell lung cancer xenografts (˜300 mm^3) were induced in SCID mice following the method described in Example 2 above. These mice were treated with PIVO-2-LD, PIVO-8-LD, PIVO-24-LD, LD, and FD at a doxorubicin dose of 2 mg/kg and sacrificed 1 h, 4 h, or 24 h later. Blood samples were collected from the mice via submaxillary punctures and plasma samples were prepared therefrom. In addition, xenografts and normal organs were removed, part of them being homogenized to isolate cell nuclei. Doxorubicin was extracted either from the tumor tissue or from the nuclei following the method described in Laginha et al., Clin. Cancer Res. 11:6944-6949, 2005 and Mayer et al., J. Pharmacol. Exp. Ther. 280:1406-1414, 1997. The amount of doxorubicin was determined by spectrofluorometry at λex 485/20 nm and λcm 645/40 nm (Synergy HT Multi-Detection Microplate Reader, BioTek Instruments, Winooski, Vt. 05404 USA). Based on the amounts of doxorubicin in tumor tissues at different time points, concentration-time curves of doxorubicin were prepared and the areas under the curves from 0-48 hours (AUC0-48 hours) were determined.

For series [2], the system named is lung tumor xenografts, tumor neovasculature. The experiment in a line: Immuno-staining of phage (anti-M13) and blood vessels (anti-CD31) in lung tumor xenografts and normal organs. Format: in vivo, SCID mice. An excerpt:
The accumulation of the phage clones in tumor mass was further examined by an immuno-staining assay, using an anti-M13 phage monoclonal antibody (Amersham Biosciences, Uppsala, Sweden). Briefly, after injection of the phage clones, normal organ samples and tumor samples were obtained, each divided into two parts. Bound phage particles were released from one part of the samples and titered using bacterium ER2738. The other part of each of the samples was embedded in Optimal Cutting Temperature (OCT, Tissue-Tek, NL, USA). The OCT-embedded samples (frozen) were sectioned (5 micron) and transferred to cold PBS. The sections were fixed with acetone-methanol (1:1) on slides, washed with PBS, and immersed in a blocking buffer (1% BSA in PBS) for 1 h. Then, the slides were incubated with rat anti-mouse CD31 antibody (an antibody recognizing blood vessels; BD Pharmingen, MA, USA.) and rabbit anti-rat Ig antibody (Stressgen, Canada), and immersed in Rhodamine labeled goat anti-rabbit Ig antibody (Jackson ImmunoResearch, PA, USA). The slides were further incubated with mouse anti-M13 phage monoclonal antibody (Amersham Biosciences, Uppsala, Sweden), then with FITC-labeled goat anti-mouse Ig antibody (Jackson ImmunoResearch, PA, USA), and finally immersed in a solution containing Hoechst 33258 (Molecular Probe, OR, USA). After being washed and mounted with a mounting medium (Vector, Calif., USA), the slides were examined under a Leica Confocal Microscope (TCS-SP5-AOBS). Images of the slides were processed with the Leica Application Suite Advanced Fluorescence software.

Series [3] relates to H460 cells (lung cancer) xenografts. The experiment in a line: In vivo homing of phage clones to lung cancer xenografts, alone or with synthetic peptide (phage titer). Details: species or system SCID mice. To be noted: 100 μg synthetic peptide co-injected. The method, then:
Eight minutes after the injection, the phage-treated SCID mice were perfused with 50 ml PBS to wash away phage particles unbound to tissues. Normal organs (e.g., lung, heart, brain) and tumor mass were removed from the mice, weighed, washed with PBS, and homogenized to release tissue-bound phage particles, if any. The released phage particles were titered using bacterium ER2738 (New England BioLabs, MA, USA) grown on IPTG-X-gal-containing agar plates, and amplified in the same bacterium following the manufacturer's protocol.
H460 cells (a lung cancer cell line) were injected subcutaneously (s.c.) into the dorsolateral flanks of SCID mice (4-6 weeks of age) to form lung cancer xenografts. Each of phage clones IVO 2, IVO 8, and IVO 24, displaying peptide SVSVGMKPSPRP (SEQ ID NO:1), SNPFSKPYGLTV (SEQ ID NO:3), and YPHYSLPGSSTL (SEQ ID NO:5), respectively, was injected (i.v.) into the tail veins of the mice bearing the xenografts (˜100 mm^3), either alone or with 100 μg synthetic peptides SVSVGMKPSPRP (SEQ ID NO:1), SNPFSKPYGLTV (SEQ ID NO:3), or YPHYSLPGSSTL (SEQ ID NO:5). Normal organs and tumor mass were removed from these mice and processed as described in Example 1 above. The phage titers in the normal organs and tumor mass were determined following the procedure also described in Example 1.

As for `COc1cccc2c1C(=O)c1c(O)c3c(c(O)c1C2=O)C[C@@](O)(C(=O)CO)C[C@@H]3O[C@H]1C[C@H](N)[C@H](O)[C@H](C)O1` [FD, doxorubicin], in the series with tumor xenografts, the “necrotic/apoptotic area (combined) in tumor xenografts” value is “only a moderate necrotic/apoptotic area”. Besides, the “Nucleus (AUC0-48 h) doxorubicin” value in series [1] (tumor cell nuclei (bioavailable doxorubicin)) is 3.68 µg·h/g. Moreover, the “Tumor (AUC0-48 h) doxorubicin” value in series [1] (tumor tissue) worked out at 10.23 µg·h/g.

SNPFSKPYGLTV (Tumor-Targeting Peptide): the “blocking by synthetic peptide of binding of the corresponding phage clone to lung tumor tissues” value (“blocking by synthetic peptide” for short) in series [2] is given as “blocked binding”. Besides, the “inhibition by synthetic peptide of accumulation in tumor mass of the phage clone displaying the same peptide” value (from here on “inhibition by synthetic peptide”) in series [3] is reported as “inhibited accumulation”.

For SVSVGMKPSPRP (Tumor-Targeting Peptide), the “blocking by synthetic peptide” value in series [2] is listed as “blocked binding”. Besides, the “inhibition by synthetic peptide” value in series [3] is on record as “inhibited accumulation of phage clone IVO 2”.

Consider YPHYSLPGSSTL (Tumor-Targeting Peptide), for which, in series [2], the “blocking by synthetic peptide” value is “blocked binding”. Further, in series [3], the “inhibition by synthetic peptide” value was “inhibited accumulation”.
